pIC50: −log10 of the molar value. “And” between values parts separate entries of the source, which are not always exact repeats. Identical values can stand only once.
Legend:
[1] = target: Gastrin/cholecystokinin type B receptor (Mus musculus) (UniProt P56481); assay: Inhibition of [125I]CCK-8 binding to cholecystokinin type B receptor in the mouse cerebral cortex
[2] = Selectivity ratio defined as the ratio of IC50(CCK-A)/IC50(CCK-B)
[3] = target: Cholecystokinin receptor type A (Rattus norvegicus) (UniProt P30551); assay: Inhibition of [125I]CCK-8 binding to cholecystokinin type A receptor in the rat pancreas

With `CC(CCCCc1ccccc1)(Cc1c[nH]c2ccccc12)NC(=O)OC1[C@H]2C[C@@H]3C[C@@H](C[C@H]1C3)C2` (some centres not stated) as the compound, how does the pIC50 [1] read?
The pIC50 was 5.06.

What about the Ratio [2] of the same compound?
The Ratio was 2.2.

And the pIC50 [3]?
The pIC50 was 4.71.

With `COC(=O)CCC(=O)N[C@H](COC(=O)C(C)(Cc1c[nH]c2ccccc12)NC(=O)OC1[C@H]2C[C@@H]3C[C@@H](C[C@H]1C3)C2)c1ccccc1` (some centres not stated) as the compound, how does the pIC50 [1] read?
Its pIC50 is 7.15.

And the Ratio [2]?
Its Ratio is 4.9.

What about the pIC50 [3] of the same compound?
The pIC50 was 6.45.

With `CCOC(=O)CCC(=O)N(CCc1ccccc1)CC(C)(Cc1c[nH]c2ccccc12)NC(=O)OC1[C@H]2C[C@@H]3C[C@@H](C[C@H]1C3)C2` (some centres not stated) as the compound, how does the pIC50 [1] read?
The pIC50 was 5.79.

What about the Ratio [2] of the same compound?
The Ratio was 2.3.

And the pIC50 [3]?
Its pIC50 is 6.17.

With `CN(C(=O)C(Cc1c[nH]c2ccccc12)NC(=O)OC1[C@H]2C[C@@H]3C[C@@H](C[C@H]1C3)C2)C(CO)Cc1ccccc1` (some centres not stated) as the compound, how does the pIC50 [1] read?
The pIC50 was 5.84.

What about the Ratio [2] of the same compound?
Its Ratio is 0.74.

What about the pIC50 [3] of the same compound?
Its pIC50 is 5.97.

Which results are given for `CN(CCc1ccccc1)C(=O)C(C)(Cc1c[nH]c2ccccc12)NC(=O)OC1[C@H]2C[C@@H]3C[C@@H](C[C@H]1C3)C2` (some centres not stated)?
pIC50 [1]: 6.91; Ratio [2]: 6.2; pIC50 [3]: 6.12

Which Ratio [2] does the source give for `CC(Cc1c[nH]c2ccccc12)(NC(=O)OC1[C@H]2C[C@@H]3C[C@@H](C[C@H]1C3)C2)C(O)CCCc1ccccc1` (some centres not stated) [listing 1 of 3 here] here?
The Ratio was 1.3 and 2.1.

With `CC(Cc1c[nH]c2ccccc12)(CN(CCc1ccccc1)C(=O)CCC(=O)O)NC(=O)OC1[C@H]2C[C@@H]3C[C@@H](C[C@H]1C3)C2` (some centres not stated) as the compound, how does the pIC50 [1] read?
Its pIC50 is 5.90.

And the Ratio [2]?
Its Ratio is 0.85.

What about the pIC50 [3] of the same compound?
The pIC50 was 5.97.

With `O=C(NC(Cc1c[nH]c2ccccc12)/C(S)=N/C(CO)Cc1ccccc1)OC1[C@H]2C[C@@H]3C[C@@H](C[C@H]1C3)C2` (some centres not stated) as the compound, how does the Ratio [2] read?
Its Ratio is 1.2.

With `O=C(NC(Cc1c[nH]c2ccccc12)C(=O)NC(CO)Cc1ccccc1)OC1[C@H]2C[C@@H]3C[C@@H](C[C@H]1C3)C2` (some centres not stated) as the compound, how does the pIC50 [1] read?
The pIC50 was 6.07.

And the Ratio [2]?
The Ratio was 1.3.

What about the pIC50 [3] of the same compound?
The pIC50 was 5.97.

With `CC(Cc1c[nH]c2ccccc12)(NC(=O)OC1[C@H]2C[C@@H]3C[C@@H](C[C@H]1C3)C2)C(=O)SCCc1ccccc1` (some centres not stated) as the compound, how does the pIC50 [1] read?
Its pIC50 is 6.03.

What about the Ratio [2] of the same compound?
Its Ratio is 1.3.

And the pIC50 [3]?
Its pIC50 is 5.92.

With `CC(Cc1c[nH]c2ccccc12)(NC(=O)OC1[C@H]2C[C@@H]3C[C@@H](C[C@H]1C3)C2)C(O)CCCc1ccccc1` (some centres not stated) [listing 2 of 3 here] as the compound, how does the pIC50 [1] read?
Its pIC50 is 6.23.

What about the pIC50 [3] of the same compound?
Its pIC50 is 5.91.

With `CC(Cc1c[nH]c2ccccc12)(NC(=O)OC1[C@H]2C[C@@H]3C[C@@H](C[C@H]1C3)C2)C(O)CCCc1ccccc1` (some centres not stated) [listing 3 of 3 here] as the compound, how does the pIC50 [1] read?
Its pIC50 is 5.71.

And the pIC50 [3]?
Its pIC50 is 5.58.

With `O=C(NC(Cc1c[nH]c2ccccc12)C(=O)OC(CO)Cc1ccccc1)OC1[C@H]2C[C@@H]3C[C@@H](C[C@H]1C3)C2` (some centres not stated) as the compound, how does the pIC50 [1] read?
The pIC50 was 5.72.

What about the Ratio [2] of the same compound?
The Ratio was 1.6.

What about the pIC50 [3] of the same compound?
Its pIC50 is 5.53.

With `O=C(NC(Cc1c[nH]c2ccccc12)C(=S)NC(CO)Cc1ccccc1)OC1[C@H]2C[C@@H]3C[C@@H](C[C@H]1C3)C2` (some centres not stated) as the compound, how does the pIC50 [1] read?
The pIC50 was 5.80.

What about the pIC50 [3] of the same compound?
The pIC50 was 5.70.

With `CCOC(=O)CCCCCC(=O)N(CCc1ccccc1)CC(C)(Cc1c[nH]c2ccccc12)NC(=O)OC1[C@H]2C[C@@H]3C[C@@H](C[C@H]1C3)C2` (some centres not stated) as the compound, how does the pIC50 [1] read?
The pIC50 was 6.06.

And the Ratio [2]?
The Ratio was 4.1.

What about the pIC50 [3] of the same compound?
Its pIC50 is 5.45.

What does the source list for `CC(Cc1c[nH]c2ccccc12)(NC(=O)OC1[C@H]2C[C@@H]3C[C@@H](C[C@H]1C3)C2)C(=S)NCCc1ccccc1` (some centres not stated)?
pIC50 [1]: 6.09; pIC50 [3]: 5.82

What does the source list for `O=C(NC(CNC(CO)Cc1ccccc1)Cc1c[nH]c2ccccc12)OC1[C@H]2C[C@@H]3C[C@@H](C[C@H]1C3)C2` (some centres not stated)?
pIC50 [1]: 4.94; Ratio [2]: 0.11; pIC50 [3]: 5.90

Which results are given for `CC(Cc1c[nH]c2ccccc12)(NC(=O)OC1[C@H]2C[C@@H]3C[C@@H](C[C@H]1C3)C2)C(=O)OCCc1ccccc1` (some centres not stated)?
pIC50 [1]: 6.26; Ratio [2]: 2; pIC50 [3]: 5.97

With `CC(Cc1c[nH]c2ccccc12)(NC(=O)OC1[C@H]2C[C@@H]3C[C@@H](C[C@H]1C3)C2)/C(S)=N/CCc1ccccc1` (some centres not stated) as the compound, how does the Ratio [2] read?
Its Ratio is 1.9.

— ChEMBL document CHEMBL1125442, “Amide bond replacements incorporated into CCK-B selective "dipeptoids"” (J Med Chem, 1992)
